Test results published in EPA's ToxRefDB 2.

How the values were obtained:
dog [1] = conditions: Chronic toxicity, beagle, Oral, Feed, dose end: 2 year, group: systemic
rat [2] = conditions: Carcinogenicity; sprague dawley; Oral; Gavage/Intubation; dose end: 105 week; group: systemic; systemic / clinical chemistry / [other] / [other] + systemic / organ weight / liver / relative to body weight + systemic / organ weight / …
rat [3] = conditions: Carcinogenicity, Osborne-Mendel, Oral, Gavage/Intubation, dose end: 104 week, group: systemic
dog [4] = conditions: Sub-acute repeat dose toxicity, beagle, Oral, Gavage/Intubation, dose end: 14 day, group: systemic
primate = conditions: Sub-acute repeat dose toxicity; Oral; Gavage/Intubation; dose end: 28 day; group: systemic; systemic / in life observation / clinical signs / defecation (diarrhea) + systemic / in life observation / food consumption / food …
rat [5] = conditions: Sub-acute repeat dose toxicity, wistar, Oral, Gavage/Intubation, dose end: 28 day
rat [6] = conditions: Prenatal developmental toxicity study, other, Oral, Gavage/Intubation, dose end: 15 GD
rat [7] = conditions: Subchronic oral toxicity in rodents, wistar, Feed, dose end: 3 month, group: systemic
rat [8] = conditions: Combined chronic toxicity/carcinogenicity, wistar, Oral, Feed, dose end: 104 week, group: systemic
rat [9] = conditions: Multigenerational reproductive toxicity study, sprague dawley, Oral, Feed, dose end: 2 generation
rat [10] = conditions: Combined chronic toxicity/carcinogenicity, wistar, Oral, Feed, dose end: 104 week, group: systemic; remark: listed apart in the source
mouse [11] = conditions: Subchronic oral toxicity in rodents, b6c3f1, Gavage/Intubation, dose end: 13 week, group: systemic
mouse [12] = conditions: Sub-acute repeat dose toxicity, b6c3f1, Oral, Gavage/Intubation, dose end: 15 day, group: systemic
rat [13] = conditions: Subchronic oral toxicity in rodents, fischer, Gavage/Intubation, dose end: 13 week, group: systemic, systemic / pathology gross / spleen / enlarged + systemic / pathology microscopic / kidney / hemosiderosis + systemic / pathology …
rat [14] = conditions: Sub-acute repeat dose toxicity, fischer, Oral, Gavage/Intubation, dose end: 14 day, group: systemic
mouse [15] = conditions: Carcinogenicity, b6c3f1, Oral, Gavage/Intubation, dose end: 103 week, group: systemic
rat [16] = conditions: Carcinogenicity, fischer, Oral, Gavage/Intubation, dose end: 103 week, group: systemic
rat [17] = conditions: Combined chronic toxicity/carcinogenicity; fischer; Oral; Feed; dose end: 104 week; group: systemic; systemic / pathology microscopic / adrenal gland / pheochromocytoma benign + systemic / pathology microscopic / adrenal gland / …
rat [18] = conditions: Subchronic oral toxicity in rodents, fischer, Feed, dose end: 13 week, group: systemic
rat [19] = conditions: Carcinogenicity; fischer; Oral; Feed; dose end: 105 week; group: systemic; systemic / in life observation / body weight / body weight + systemic / pathology microscopic / kidney / nephropathy + systemic / pathology …
mouse [20] = conditions: Sub-acute repeat dose toxicity; b6c3f1; Oral; Feed; dose end: 14 day; group: systemic; systemic / in life observation / clinical signs / feces, discoloration
mouse [21] = conditions: Combined chronic toxicity/carcinogenicity; b6c3f1; Oral; Feed; dose end: 104 week; group: systemic; systemic / pathology microscopic / blood / lymphoma malignant + systemic / pathology microscopic / ovary / interstitial stromal tumor + …
rat [22] = conditions: Subchronic oral toxicity in rodents, fischer, Feed, dose end: 13 week, group: systemic; remark: listed apart in the source
rat [23] = conditions: Sub-acute repeat dose toxicity; fischer; Oral; Feed; dose end: 14 day; group: systemic; systemic / in life observation / clinical signs / feces, discoloration + systemic / in life observation / food consumption / food …
mouse [24] = conditions: Subchronic oral toxicity in rodents, b6c3f1, Feed, dose end: 13 week, group: systemic
mouse [25] = conditions: Subchronic oral toxicity in rodents, b6c3f1, Feed, dose end: 13 week, group: systemic; remark: listed apart in the source
mouse [26] = conditions: Carcinogenicity, b6c3f1, Oral, Feed, dose end: 105 week, group: systemic
mouse [27] = conditions: Carcinogenicity; b6c3f1; Oral; Feed; dose end: 104 week; group: systemic; systemic / in life observation / body weight / body weight
[28] = systemic / clinical chemistry / bilirubin / total bilirubin + systemic / hematology / anisocytosis / anisocytosis + systemic / hematology / …
[29] = systemic / clinical chemistry / glucose / glucose
[30] = systemic / pathology microscopic / liver / carcinoma + systemic / pathology microscopic / liver / neoplastic nodule + systemic / pathology …
[31] = systemic / pathology microscopic / thyroid gland / adenoma
[32] = systemic / in life observation / body weight / body weight + systemic / in life observation / clinical signs / salivation + systemic / in …
[33] = systemic / in life observation / body weight / body weight + systemic / pathology microscopic / kidney / vacuolization cytoplasmic + …
[34] = group: systemic, systemic / hematology / polychromasia / polychromasia + systemic / in life observation / body weight / body weight + systemic / in life …
[35] = group: systemic, systemic / pathology microscopic / ovary / degeneration
[36] = group: developmental, developmental / developmental malformation / bone / full supernumerary + developmental / developmental malformation / general / [other]
[37] = group: maternal, systemic / in life observation / body weight / body weight gain + systemic / in life observation / food consumption / food consumption
[38] = group: maternal, systemic / in life observation / body weight / body weight gain + systemic / in life observation / food consumption / food consumption + …
[39] = systemic / clinical chemistry / [other] / [other] + systemic / in life observation / body weight / body weight gain
[40] = systemic / organ weight / kidney / absolute + systemic / organ weight / kidney / relative to body weight + systemic / organ weight / kidney…
[41] = systemic / hematology / platelet / platelet + systemic / organ weight / liver / relative to body weight + systemic / pathology microscopic…
[42] = systemic / pathology microscopic / adrenal gland / pheochromocytoma benign + systemic / pathology microscopic / adrenal gland / …
[43] = group: offspring, developmental / offspring survival late / viability index / viability index + systemic / in life observation / body weight / offspring (pup…
[44] = group: parental, systemic / clinical chemistry / alpha-2 globulin / alpha-2 globulin + systemic / organ weight / kidney / absolute + systemic / organ weight…
[45] = systemic / clinical chemistry / alpha-2 globulin / alpha-2 globulin
[46] = systemic / clinical chemistry / alpha-2 globulin / alpha-2 globulin + systemic / hematology / platelet / platelet + systemic / organ weight…
[47] = systemic / in life observation / body weight / body weight
[48] = systemic / pathology gross / spleen / enlarged + systemic / pathology microscopic / spleen / hematopoietic cell proliferation + systemic / …
[49] = systemic / pathology gross / spleen / enlarged
[50] = systemic / pathology gross / spleen / enlarged + systemic / pathology microscopic / spleen / congestion + systemic / pathology microscopic…
[51] = systemic / pathology microscopic / stomach / hyperplasia
[52] = systemic / pathology microscopic / stomach / squamous cell papilloma + systemic / pathology microscopic / stomach / hyperplasia
[53] = systemic / pathology microscopic / liver / inflammation + systemic / pathology microscopic / spleen / hematopoietic cell proliferation + …
[54] = systemic / pathology microscopic / spleen / hematopoietic cell proliferation + systemic / pathology microscopic / spleen / hemosiderosis
[55] = systemic / clinical chemistry / bile acids / bile acids + systemic / in life observation / food consumption / food consumption + systemic / …
[56] = systemic / organ weight / liver / absolute + systemic / organ weight / liver / relative to body weight
[57] = systemic / organ weight / epididymis / absolute + systemic / organ weight / testes / absolute + systemic / organ weight / testes / relative …
[58] = systemic / organ weight / testes / absolute
[59] = systemic / organ weight / epididymis / nos + systemic / organ weight / liver / absolute + systemic / organ weight / testes / absolute + …
[60] = systemic / pathology microscopic / spleen / hematopoietic cell proliferation + systemic / pathology microscopic / testes / degeneration
[61] = systemic / pathology microscopic / spleen / hematopoietic cell proliferation + systemic / pathology microscopic / testes / degeneration + …

## CC(O)CO (stereo unspecified) [1,2-Propylene glycol]
Dog [1]; [28]
  LOAEL: > 5000 mg/kg/day
  NOAEL: ≥ 5000 mg/kg/day
Dog [1]; [29]
  LEL: 2000 mg/kg/day
  NEL: < 2000 mg/kg/day

## Clc1cc2c(cc1Cl)Oc1cc(Cl)c(Cl)cc1O2 [2,3,7,8-Tetrachlorodibenzo-p-dioxin]
Rat [2]
  LEL: 3e-06 mg/kg/day
  LOAEL: > 0.0001 mg/kg/day
  NEL: < 3e-06 mg/kg/day
  NOAEL: ≥ 0.0001 mg/kg/day
Rat [3]; [30]
  LOAEL: > 0.0005 mg/kg/day
  NOAEL: ≥ 0.0005 mg/kg/day
Rat [3]; [31]
  LEL: 1e-05 mg/kg/day
  NEL: < 1e-05 mg/kg/day

## O=c1[nH]c2ccc(S(=O)CCN3CCC(Cc4ccc(F)cc4)CC3)cc2o1 (stereo unspecified) [Besonprodil]
Dog [4]; [32]
  LEL: 30 mg/kg/day
  NEL: < 30 mg/kg/day
Dog [4]; [33]
  LOAEL: > 300 mg/kg/day
  NOAEL: ≥ 300 mg/kg/day
primate
  LEL: 25 mg/kg/day
  LOAEL: > 500 mg/kg/day
  NEL: < 25 mg/kg/day
  NOAEL: ≥ 500 mg/kg/day
Rat [5]; group: maternal, reproductive / reproductive performance / estrous cycle / absent corpora lutea
  LEL: 200 mg/kg/day
Rat [5]; [34]
  LOAEL: > 300 mg/kg/day
  NOAEL: ≥ 300 mg/kg/day
Rat [5]; [35]
  LEL: 25 mg/kg/day
  NEL: < 25 mg/kg/day

## ClC1C(Cl)C(Cl)C(Cl)C(Cl)C1Cl (stereo unspecified) [Lindane]
Rat [6]; [36]
  LEL: 20 mg/kg/day
  LOAEL: 20 mg/kg/day
  NEL: 10 mg/kg/day
  NOAEL: 10 mg/kg/day
Rat [6]; [37]
  LEL: 10 mg/kg/day
  LOAEL: 10 mg/kg/day
Rat [6]; [38]
  NEL: 5 mg/kg/day
  NOAEL: 5 mg/kg/day
Rat [7]; [39]
  LEL: 0.01 mg/kg/day
  NEL: < 0.01 mg/kg/day
Rat [7]; [40]
  LOAEL: 1 mg/kg/day
  NOAEL: 0.2 mg/kg/day
Rat [8]; [41]
  LOAEL: 4.81 mg/kg/day
  NOAEL: 0.47 mg/kg/day
Rat [8]; [42]
  LEL: 0.05 mg/kg/day
  NEL: < 0.05 mg/kg/day
Rat [9]; [43]
  LEL: 13.1 mg/kg/day
  LOAEL: 13.1 mg/kg/day
  NEL: 1.71 mg/kg/day
  NOAEL: 1.71 mg/kg/day
Rat [9]; group: parental, systemic / clinical chemistry / alpha-2 globulin / alpha-2 globulin
  LOAEL: 1.71 mg/kg/day
Rat [9]; [44]
  LEL: 1.71 mg/kg/day
  NEL: 0.0865 mg/kg/day
  NOAEL: 0.0865 mg/kg/day
Rat [10]; [45]
  LEL: 0.05 mg/kg/day
  NEL: < 0.05 mg/kg/day
Rat [10]; [46]
  LOAEL: 4.81 mg/kg/day
  NOAEL: 0.47 mg/kg/day

## CN(C)c1ccccc1 [N,N-Dimethylaniline]
Mouse [11]; [47]
  LEL: 31 mg/kg/day
  NEL: < 31 mg/kg/day
Mouse [11]; [48]
  LOAEL: 62 mg/kg/day
  NOAEL: 31 mg/kg/day
Mouse [12]; [49]
  LEL: 188 mg/kg/day
Mouse [12]; [50]
  LOAEL: 375 mg/kg/day
  NEL: 94 mg/kg/day
  NOAEL: 188 mg/kg/day
Rat [13]
  LEL: 31 mg/kg/day
  LOAEL: 31 mg/kg/day
  NEL: < 31 mg/kg/day
  NOAEL: < 31 mg/kg/day
Rat [14]; [49]
  LEL: 94 mg/kg/day
  NEL: < 94 mg/kg/day
Rat [14]; [48]
  LOAEL: 375 mg/kg/day
  NOAEL: 188 mg/kg/day
Mouse [15]; [51]
  LEL: 15 mg/kg/day
  NEL: < 15 mg/kg/day
Mouse [15]; [52]
  LOAEL: > 30 mg/kg/day
  NOAEL: ≥ 30 mg/kg/day
Rat [16]; [53]
  LOAEL: 30 mg/kg/day
  NOAEL: 3 mg/kg/day
Rat [16]; [54]
  LEL: 3 mg/kg/day
  NEL: < 3 mg/kg/day

## O=C1OC(c2ccc(O)cc2)(c2ccc(O)cc2)c2ccccc21 [Phenolphthalein]
Rat [17]
  LEL: 500 mg/kg/day
  LOAEL: > 2000 mg/kg/day
  NEL: < 500 mg/kg/day
  NOAEL: ≥ 2000 mg/kg/day
Rat [18]; systemic / clinical chemistry / bile acids / bile acids
  LEL: 383 mg/kg/day
Rat [18]; [55]
  LOAEL: > 3490 mg/kg/day
  NEL: 192 mg/kg/day
  NOAEL: ≥ 3490 mg/kg/day
Rat [19]
  LEL: 500 mg/kg/day
  LOAEL: 500 mg/kg/day
  NEL: < 500 mg/kg/day
  NOAEL: < 500 mg/kg/day
Mouse [20]
  LEL: 15000 mg/kg/day
  LOAEL: > 15000 mg/kg/day
  NEL: 7500 mg/kg/day
  NOAEL: ≥ 15000 mg/kg/day
Mouse [21]
  LEL: 300 mg/kg/day
  LOAEL: > 1200 mg/kg/day
  NEL: < 300 mg/kg/day
  NOAEL: ≥ 1200 mg/kg/day
Rat [22]; [56]
  LOAEL: > 3500 mg/kg/day
  NEL: 400 mg/kg/day
  NOAEL: ≥ 3500 mg/kg/day
Rat [22]; systemic / organ weight / liver / relative to body weight
  LEL: 800 mg/kg/day
Rat [23]
  LEL: 10500 mg/kg/day
  LOAEL: > 10500 mg/kg/day
  NEL: 4500 mg/kg/day
  NOAEL: ≥ 10500 mg/kg/day
Mouse [24]; [57]
  LOAEL: 2000 mg/kg/day
  NOAEL: 1000 mg/kg/day
Mouse [24]; [58]
  LEL: 500 mg/kg/day
  NEL: < 500 mg/kg/day
Mouse [25]; [59]
  LOAEL: > 9140 mg/kg/day
  NOAEL: ≥ 9140 mg/kg/day
Mouse [25]; [58]
  LEL: 509 mg/kg/day
  NEL: < 509 mg/kg/day
Mouse [26]; [60]
  LOAEL: 300 mg/kg/day
  NOAEL: < 300 mg/kg/day
Mouse [26]; [61]
  LEL: 300 mg/kg/day
  NEL: < 300 mg/kg/day

## O=C1OC(=O)c2ccccc21 [Phthalic anhydride]
Mouse [27]
  LEL: 1800 mg/kg/day
  LOAEL: 1800 mg/kg/day
  NEL: < 1800 mg/kg/day
  NOAEL: < 1800 mg/kg/day
